US6960587B2, “Condensed pyrazindione derivatives as PDE inhibitors” (Lilly Icos LLC, priority 2000, dated 2005)
Where a name gives a salt, the structure may show the parent alone.

Target: T1, recombinant human PDE5 (Homo sapiens, UniProt O76074)
T1 construct: host or cells: Saccharomyces cerevisiae strain BJ2-54 (ATCC 74465)
Experiment: PDE5 inhibition, cGMP-PDE one-step assay
Assay type: biochemical
Settings: in vitro

| Compound | IC50 |
| --- | --- |
| CN1CC(=O)N2[C@H](c3ccc4c(c3)OCO4)c3[nH]cnc3C[C@@H]2C1=O (racemic) [Example 1, (+−, cis)-4-Benzo[1,3]dioxol-5-yl-7-methyl-3,4,6,7,8a,9-hexahydro-1,3,4a,7-tetraaza-cyclopenta[b]naphthalene-5,8-dione hydrochloride] | 3240 nM |
| COc1cc2c(cc1OC)[C@@H](c1ccc3c(c1)OCO3)N1C(=O)CN(C)C(=O)[C@@H]1C2 [Example 10] | 718 nM |
